Test results reported in patent publication US10875845B2, “Compounds and methods for the treatment of ocular disorders” (Azura Ophthalmics Ltd., priority 2019, dated 2020).

Key:
[1] = Aqueous Hydrolysis Stability Assay; type: physicochemical; details: 100 μM in 50 mM HEPES pH 7.5 buffer or 1:1 Acetonitrile:Water, room temperature
Experimental: Determination of aqueous stability of the test compounds was performed using HPLC-MS. A test compound 10 mM stock solution was prepared in DMSO. 10 μl of the DMSO stock solution was dissolved in 990 μl of 50 mM HEPES pH 7.5 buffer or 1:1 (v/v) of Acetonitrile:Water to make a 100 μM solution. Final DMSO concentration was 1%. The solution was kept at room temperature and injected without delay into the LCMS (Waters Xevo TQ-S or Micromass Ultima). Additional injections were performed at appropriate time points.
Half-life (T1/2) of the parent conjugate was calculated using the peak area of the parent conjugate at each time point in the linear region of the log—linear plot.

Rabbit Cornea Homogenate = Rabbit Cornea Homogenate Stability Assay (rabbit cornea esterase assay); type: in vitro ADME; details: 37° C.
Experimental: Determining Rabbit Cornea Homogenate stability of the test compounds was performed using HPLC-MS. The assay was performed at two concentrations of Rabbit Cornea Homogenate (0.15 mg/ml and 0.45 mg/ml total protein) so that any hydrolysis observed could be assigned as esterase dependent or not.
Five rabbit corneas (e.g. New Zealand Whites) of approx. 50 mg each were sliced and scraped with a scalpel and tweezers until reduced to small (1-3 mm), thin pieces. These were transferred into a tared vial and accurately weighed, then diluted with 10 volumes aqueous PBS pH7.4
Sample was cooled intermittently on ice and shear homogenized for 3 minutes, then centrifuged for 3 min at 3000 rpm. The supernatant was pipetted off into a vial, and total protein concentration determined at 280 nm. Sample was stored at −78° C.
10 mM Compound stocks were diluted to 100 μM in a 96 deep-well plate: 10 μl of 10 mM Compound stock was added to 990 μl 50 mM HEPES, pH7.5 buffer.
Compounds were further diluted to 10 μM: 100 μl of 100 μM compound was added to 900 μl 50 mM HEPES, pH7.5 buffer.
Esterase homogenate was diluted to 300 ng/μl and 900 ng/μl
A heater shaker was set to 37° C. Into a suitable 96 well plate (Run Plate), 75 μl of 300 or 900 ng/μl esterase homogenate was pipetted into each of the required wells (2 min, 5 min, 10 min, 20 min and 45 min). The plate was sealed and then warmed at 37° C. for 5 min. Another 96 well PCR plate is put on ice (Kill Plate). To this was added 100 μl of MeCN to each well, labelled 0 min, 2 min, 5 min, 10 min, 20 min and 45 min. The plate was covered to minimise evaporation. For the T=0 sample only, to the 100 μl cold MeCN stop solution was added 50 μl of 300 or 900 ng/μl esterase homogenate followed by 50 μl of 10 μM compound solution For the remaining time points, 75 μl of 10 μM compound solution was added to the Run Plate starting from T=45 min row and ending with T=2 min row. At the appropriate time point, 100 μl of the assay mixture was added to the matching kill plate well containing 100 μl of cold MeCN. Samples were analysed as soon as practicable by LCMS (Waters Xevo TQ-S or Micromass Ultima).
Parent conjugate and parent concentrations were determined against appropriate standard response curves and the half-life (T1/2) of the parent conjugate was calculated using the peak area of the parent conjugate at each time point in the linear region of the log—linear plot.

[2] = Cornea Homogenate Conc 0.15 mg/mL
[3] = Cornea Homogenate Conc 0.45 mg/mL

API Formation rate (Rabbit Cornea Homogenate; [2]) | API Formation rate (Rabbit Cornea Homogenate; [3]) | Esterase % Lifitegrast formation at 45 min (Rabbit Cornea Homogenate; [3]) | Compound | Hydrolytic % Lifitegrast formation at [time] ([1]; at 192 min) | Esterase % Lifitegrast formation at 45 min (Rabbit Cornea Homogenate; [2]) | Hydrolytic % Lifitegrast formation at [time] ([1]; at 45 min) | Hydrolytic % Lifitegrast formation at [time] ([1]; at 142 min)
b (API formation rate 0.5-1.0%/min) | c (API formation rate 1.0-1.5%/min) | C (percent API formation 51% to 75%) | Cc1ccccc1OCC(=O)N[C@@H](CC(C)C)C(=O)N[C@@H](Cc1ccc(OC(=O)N2CCC(C(N)=O)CC2)cc1)C(=O)OC(C)OC(=O)OC(C)C (stereo partly drawn) [Comp 2, 4-((2S)-3-(1-((isopropoxycarbonyl)oxy)ethoxy)-2-((S)-4-methyl-2-(2-(o-tolyloxy)acetamido)pentan-amido)-3-oxopropyl)phenyl 4-carbamoylpiperidine-1-carboxylate] | A [192 min] (percent active pharmaceutical ingredient (API) formation<1.5%) | B (percent API formation 25% to 50%) | – | –
a (API formation rate<0.5%/min) | b (API formation rate 0.5-1.0%/min) | B (percent API formation 25% to 50%) | CC(OC(=O)CCCC[C@@H]1CCSS1)OC(=O)[C@H](Cc1cccc(S(C)(=O)=O)c1)NC(=O)c1c(Cl)cc2c(c1Cl)CCN(C(=O)c1ccc3ccoc3c1)C2 (stereo partly drawn) [Comp 20, 1-(((S)-2-(2-(benzofuran-6-carbonyl)-5,7-dichloro-1,2,3,4-tetrahydroisoquinoline-6-carboxamido)-3-(3-(methylsulfonyl)phenyl)propanoyl)oxy)ethyl 5-((R)-1,2-dithiolan-3-yl)pentanoate] | – | A (percent active pharmaceutical ingredient (API) formation<25%) | A [45 min] (percent active pharmaceutical ingredient (API) formation<1.5%) | –
b (API formation rate 0.5-1.0%/min) | d (API formation rate>1.5%/min) | C (percent API formation 51% to 75%) | CCOC(=O)[C@@H](C)OC(=O)OC(C)OC(=O)[C@H](Cc1cccc(S(C)(=O)=O)c1)NC(=O)c1c(Cl)cc2c(c1Cl)CCN(C(=O)c1ccc3ccoc3c1)C2 (stereo partly drawn) [Comp 8, 1-(((((R)-1-ethoxy-1-oxopropan-2-yl)oxy)carbonyl)oxy)ethyl (2S)-2-(2-(benzofuran-6-carbonyl)-5,7-dichloro-1,2,3,4-tetrahydroisoquinoline-6-carboxamido)-3-(3-(methylsulfonyl)phenyl) propanoate] | – | B (percent API formation 25% to 50%) | A [45 min] (percent active pharmaceutical ingredient (API) formation<1.5%) | –

Compound | API Formation rate (Rabbit Cornea Homogenate; [2]) | API Formation rate (Rabbit Cornea Homogenate; [3]) | Esterase % Lifitegrast formation at 45 min (Rabbit Cornea Homogenate; [3]) | Hydrolytic % Lifitegrast formation at [time] ([1]; at 192 min) | Esterase % Lifitegrast formation at 45 min (Rabbit Cornea Homogenate; [2]) | Hydrolytic % Lifitegrast formation at [time] ([1]; at 45 min) | Hydrolytic % Lifitegrast formation at [time] ([1]; at 142 min)
CC(OC(=O)OCC(COC(=O)C(C)(C)C)COC(=O)C(C)(C)C)OC(=O)[C@H](Cc1cccc(S(C)(=O)=O)c1)NC(=O)c1c(Cl)cc2c(c1Cl)CCN(C(=O)c1ccc3ccoc3c1)C2 (stereo partly drawn) [Comp 12, 2-((8S)-10-(2-(benzofuran-6-carbonyl)-5,7-dichloro-1,2,3,4-tetrahydroisoquinolin-6-yl)-5-methyl-8-(3-(methylsulfonyl)benzyl)-3,7,10-trioxo-2,4,6-trioxa-9-azadecyl)propane-1,3-diyl bis(2,2-dimethylpropanoate)] | a (API formation rate<0.5%/min) | a (API formation rate<0.5%/min) | A (percent active pharmaceutical ingredient (API) formation<25%) | – | A (percent active pharmaceutical ingredient (API) formation<25%) | – | B [142 min] (percent API formation 1.5-4%)
